According to patent US7223759B2, “Antibacterial 3,5-diaminopiperidine-substituted aromatic and heteroaromatic compounds” (Anadys Pharmaceuticals, Inc., priority 2003, dated 2007):
Read-outs that look alike come from different tables or passages of the source.

Test system: Escherichia coli (ATCC25922) or Staphylococcus aureus (ATCC25923)
Experiment: Antibacterial MIC, microdilution method in Mueller-Hinton medium
Format: cell-based
Details: Escherichia coli, 18 h, read-out: Potency (MIC)
In short: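 Two-fold serial dilutions from 64 to 0.5 μg/ml, in duplicate, by broth microdilution in Mueller-Hinton medium (NCCLS M7-A5). MIC taken as the lowest concentration preventing visible growth after 18 h at 35° C.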

[1] = MIC in E. coli or S. aureus, two-fold serial dilutions 64 to 0.5 μg/ml in duplicate, 18 hours of incubation at 35° C.

MIC [1] [µg/mL]	Compound	MIC [µg/mL]
> 64	N[C@@H]1C[C@H](N)CN(c2nc(NC3CCNC3)nc(N3C[C@H](N)C[C@H](N)C3)n2)C1 (stereo partly drawn) [N-pyrrolidin-3-yl-4,6-Bis-((#r,5S)-3,5-diamino-piperidin-1-yl)-[1,3,5]triazine-2-amine]	–
< 64	N[C@@H]1C[C@H](N)CN(c2nc(Nc3cccc(NC(=O)c4cc5cccc(O)c5cc4O)c3)nc(N3C[C@H](N)C[C@H](N)C3)n2)C1 [N-{3-[(3,5-dihydroxy-naphthalene-2-carbonyl)-amino]-phenyl}-4,6-Bis-((3R,5S)-3,5-diamino-piperidin-1-yl)-[1,3,5]triazine-2-amine]	–
–	N[C@@H]1C[C@H](N)CN(c2nc(Nc3ccc(NC(=O)c4ccc(N5Cc6ccccc6C5)cc4O)c(Cl)c3)nc(N3C[C@H](N)C[C@H](N)C3)n2)C1 [N-{3-chloro-4-[4-(1,3-dihydro-isoindol-2-yl)-2-hydroxy-benzoylamino]-phenyl}-4,6-Bis-((3R,5S)-3,5-diamino-piperidin-1-yl)-[1,3,5]triazine-2-amine]	< 16
–	N[C@@H]1C[C@H](N)CN(c2nc(Nc3ccc(NC(=O)c4c(O)ccc5ccccc45)c(Cl)c3)nc(N3C[C@H](N)C[C@H](N)C3)n2)C1 [N-{3-chloro-4-[(2-hydroxy-naphthalene-1-carbonyl)-amino]-phenyl}-4,6-Bis-((3R,5S)-3,5-diamino-piperidin-1-yl)-[1,3,5]triazine-2-amine]	< 16
< 16	Cl.O=C(Nc1ccc(Nc2nc(N3CCCCC3)nc(N3CCCCC3)n2)cc1Cl)c1ccc(C(F)(F)F)nc1O [N-{3-chlorro-4-[(2-hydroxy-6-trifluoromethyl-pyridine-3-carbonyl)-amino]-phenyl}-4,6-Bis-((3R,5S)-3,5-diamino-piperidin-1-yl)-[1,3,5]triazine-2-amine]	–
–	N[C@@H]1C[C@H](N)CN(c2nc(Nc3ccc(NC(=O)C(=O)c4c[nH]c5ccccc45)c(O)c3)nc(N3C[C@H](N)C[C@H](N)C3)n2)C1 [N-{3-hydroxy-4-[2-(1H-indol-3-yl)-2-oxo-acetylamino]-phenyl}-4,6-Bis-((3R,5S)-3,5-diamino-piperidin-1-yl)-[1,3,5]triazine-2-amine]	< 16
–	N[C@@H]1C[C@H](N)CN(c2nc(Nc3ccc(NS(=O)(=O)c4ccc5c(c4)CN(C(=O)C(F)(F)F)CC5)c(O)c3)nc(N3C[C@H](N)C[C@H](N)C3)n2)C1 [N-{3-hydroxy-4-[2-(2,2,2-trifluoro-acetyl)-1,2,3,4-tetrahydro-isoquinoline-7-sulfonylamino]-phenyl}-4,6-Bis-((3R,5S)-3,5-diamino-piperidin-1-yl)-[1,3,5]triazine-2-amine]	> 64
< 16	Cc1ccc(S(=O)(=O)NC(Cc2ccccc2)C(=O)Nc2ccc(Nc3nc(N4CCCCC4)nc(N4CCCCC4)n3)cc2O)cc1.Cl [N-{3-hydroxy-4-[3-phenyl-2-(toluene-4-sulfonylamino)-propionylamino]-phjenyl}-4,6-Bis-((3R,5S)-3,5-diamino-piperidin-1-yl)-[1,3,5]triazine-2-amine]	–
–	CC(C)CCCCCC(=O)Nc1ccc(S(=O)(=O)Nc2ccc(Nc3nc(N4C[C@H](N)C[C@H](N)C4)nc(N4C[C@H](N)C[C@H](N)C4)n3)cc2O)cc1 [N-{3-hydroxy-4-[4-(7-methyl-octanoylamino)-benzenesulfonylamino]-phenyl}-4,6-Bis-((3R,5S)-3,5-diamino-piperidin-1-yl)-[1,3,5]triazine-2-amine]	< 16
–	Cc1ccc(C(=O)Nc2ccc(Nc3nc(N4C[C@H](N)C[C@H](N)C4)nc(N4C[C@H](N)C[C@H](N)C4)n3)cc2O)c(O)n1 [N-{3-hydroxy-4-[(2-hydroxy-6-methyl-pyridine-3-carbonyl)-amino]-phenyl}-4,6-Bis-((3R,5S)-3,5-diamino-piperidin-1-yl)-[1,3,5]triazine-2-amine]	< 64

Compound	MIC [1] [µg/mL]	MIC [µg/mL]
N[C@@H]1C[C@H](N)CN(c2nc(Nc3ccc4ccc5cccc6ccc3c4c56)nc(N3C[C@H](N)C[C@H](N)C3)n2)C1 [N-pyren-1-yl-4,6-Bis-((3R,5S)-3,5-diamino-piperidin-1-yl)-[1,3,5]triazine-2-amine]	< 16	–
